Assay results reported in patent US4556715A, “Nicotinic acid derivatives” (Kyorin Pharmaceutical Co., Ltd., priority 1980, dated 1985).
Like-named read-outs stand apart in the source and are kept apart here.

Experiments:
[1] = system: serum and liver lipid levels in rats; assay: Serum and liver lipid levels and relative liver weight in rats (25 mg/kg, 10 days); assay type: in vivo, male Wistar rats; conditions: Table 4; for Liver lipid levels Ch / Liver lipid levels PL / Liver lipid levels TG / Relative liver weight / Serum lipid levels Ch / Serum lipid levels PL / Serum lipid levels TG: 25 mg/kg p.o. 10 days, Mean ± S.E. (n = 7); for Liver lipid levels Ch, relative to Control (100) / Liver lipid levels PL, relative to Control (100) / Liver lipid levels TG, relative to Control (100) / Relative liver weight, relative to Control (100) / Serum lipid levels Ch, relative to Control (100) / Serum lipid levels PL, relative to Control (100) / Serum lipid levels TG, relative to Control (100): in parentheses
Procedure: (3) The present compounds and KCD-232 were orally given to male Wistar rats weighing 160-180 g once a day at a dose of 25 mg/kg b.w. for 10 days. Rats were subjected to fast for 4 hr immediately after the last administration of compounds, thereafter they were sacrificed by decapitation and blood was collected, clotted and centrifuged to obtain serum. The liver was removed quickly and weighed. Total lipids were extracted from the serum and liver, and then the levels of total Ch, TG and PL were determined with colorimetric methods.

[2] = system: serum and liver lipid levels in rats; assay: Serum and liver lipid levels and relative liver weight in rats (100 mg/kg, 10 days); assay type: in vivo, Male rats of the Wistar strain; conditions: for response vs control in vivo at 100 mg/kg: Rattus norvegicus, po; for response vs control in vivo at 100 mg/kg / Relative liver weight, relative to Control (100): in parentheses, Control = (100); for Liver lipid levels Ch / Liver lipid levels PL / Liver lipid levels TG / Relative liver weight / Serum lipid levels Ch / Serum lipid levels PL / Serum lipid levels TG: Mean ± S.E. (n = 9)
Procedure: (2) Male rats of the Wistar strain weighing 160-180 g were fed a stock deit (CE-2, Japan CLEA, Tokyo) and water ad libitum. The present compounds and KCD-232 were suspended, respectively, in a 0.5% of CMC solution and give orally to rats once a day at a dose of 100 mg/kg b.w. for 10 days.
Control rats were received the 0.5% CMC solution alone. The diet was withdrawn immediately after the last administration of compounds. Animals were sacrificed by decapitation 4 hr after the last administration and blood was collected, clotted and centrifuged to obtain serum. The liver was excised quickly and weighed. Total lipids were extracted from the serum and liver, and the levels of Ch, TG and PL were determined colorimetrically.

in vivo = conditions: mouse, po, p o, male ICR mice
From the text: The present compounds were given to 6 week-old male mice of the ICR strain and their acute toxicity was examined.

[3] = system: serum and liver lipid levels in normal rats; assay: Effects on relative liver weight, serum and liver lipid levels in normal rats (100 mg/kg, 7 days); assay type: in vivo, Male Wistar strain rats
Procedure: (1) Effects on relative liver weight, serum and liver lipid levels in normal rats
Male Wistar strain rats, weighing 180-210 g were orally administered the present compounds (X=Cl, n1 =2, 3, 4 and n2 =1) and 4-(4-chlorobenzyloxy)benzyl nicotinate (KCD-232), being X=Cl, n1 =1, n2 =1, respectively, which were suspended in 0.5% carboxymethyl cellulose (CMC) solution once a day at a dose of 100 mg/kg b.w. for 7 days. The last administration was occured in rats fasted overnight. At 4 hr later blood was withdrawn from jugular vein, clotted and centrifuged to obtain serum. The liver was rapidly removed and weighed. Total lipids were extracted from the serum and liver, and cholesterol (Ch), triglycerides (TG) and phospholipids (PL) levels were determined.

[4] = 240 h, Table 3, read-out: Liver lipid levels PL, relative to Control (100)
[5] = Table 3, read-out: Liver lipid levels Ch, relative to Control (100)
[6] = Table 3, read-out: Liver lipid levels TG, relative to Control (100)
[7] = Table 3, read-out: Serum lipid levels Ch, relative to Control (100)
[8] = Table 3, read-out: Serum lipid levels PL, relative to Control (100)
[9] = Table 3, read-out: Serum lipid levels TG, relative to Control (100)
[10] = Table 3, 100 mg/kg p.o. 10 days
[11] = 240 h, Table 2, read-out: Liver lipid levels PL, relative to Control (100)
[12] = Table 2, read-out: Liver lipid levels Ch, relative to Control (100)
[13] = Table 2, read-out: Liver lipid levels TG, relative to Control (100)
[14] = Table 2, read-out: Serum lipid levels Ch, relative to Control (100)
[15] = Table 2, read-out: Serum lipid levels PL, relative to Control (100)
[16] = Table 2, read-out: Serum lipid levels TG, relative to Control (100)
[17] = Table 2, 100 mg/kg p.o. 10 days
[18] = Table 1, 100 mg/kg p.o. 7 days, fasted overnight, mean ± S.E. (n = 6)
[19] = Table 1, in parentheses, Control = (100)

O=C(OCCCCCCc1ccc(OCc2ccc(Cl)cc2)cc1)c1cccnc1 [n1=1, n2=6, 6-[4-(4-Chlorobenzyloxy)phenyl]hexyl nicotinate]
Liver lipid levels Ch [1]: 2.83 ± 0.18 mg/g liver
Liver lipid levels PL [1]: 38.8 ± 1.1 mg/g liver
Liver lipid levels TG [1]: 5.48 ± 0.93 mg/g liver
Relative liver weight [1]: 3.91 ± 0.09 g/100 g b.w.
Serum lipid levels Ch [1]: 70 ± 5.5 mg/dL
Serum lipid levels PL [1]: 100 ± 5.9 mg/dL
Serum lipid levels TG [1]: 33.5 ± 2.5 mg/dL
Liver lipid levels Ch, relative to Control (100) [1]: 87.1
Liver lipid levels PL, relative to Control (100) [1]: 102.1
Liver lipid levels TG, relative to Control (100) [1]: 73.7
Relative liver weight, relative to Control (100) [1]: 111
Serum lipid levels Ch, relative to Control (100) [1]: 89.3
Serum lipid levels PL, relative to Control (100) [1]: 92.5
Serum lipid levels TG, relative to Control (100) [1]: 88.6
response vs control in vivo at 100 mg/kg [2, 4]: 106%
response vs control in vivo at 100 mg/kg [2, 5]: 107%
response vs control in vivo at 100 mg/kg [2, 6]: 83.7%
response vs control in vivo at 100 mg/kg [2, 7]: 75.3%
response vs control in vivo at 100 mg/kg [2, 8]: 68.9%
response vs control in vivo at 100 mg/kg [2, 9]: 32.1%
Liver lipid levels Ch [2, 10]: 2.48 ± 0.10 mg/g liver
Liver lipid levels PL [2, 10]: 38.5 ± 0.7 mg/g liver
Liver lipid levels TG [2, 10]: 6.01 ± 0.76 mg/g liver
Relative liver weight [2, 10]: 3.72 ± 0.06 g/100 g b.w.
Serum lipid levels Ch [2, 10]: 73.5 ± 2.3 mg/dL
Serum lipid levels PL [2, 10]: 107 ± 3.1 mg/dL
Serum lipid levels TG [2, 10]: 40.3 ± 3.5 mg/dL
Relative liver weight, relative to Control (100) ([2]; Table 3): 98
LD50 (in vivo): > 4000 mg/kg

O=C(OCCCc1ccc(OCc2ccc(Cl)cc2)cc1)c1cccnc1 [n1=1, n2=3, 3-[4-(4-Chlorobenzyloxy)phenyl]propyl nicotinate]
Liver lipid levels Ch [1]: 3.23 ± 0.17 mg/g liver
Liver lipid levels PL [1]: 38.2 ± 0.5 mg/g liver
Liver lipid levels TG [1]: 3.80 ± 0.50 mg/g liver
Relative liver weight [1]: 3.53 ± 0.08 g/100 g b.w.
Serum lipid levels Ch [1]: 66.4 ± 5.3 mg/dL
Serum lipid levels PL [1]: 85.8 ± 4.8 mg/dL
Serum lipid levels TG [1]: 29.2 ± 1.7 mg/dL
Liver lipid levels Ch, relative to Control (100) [1]: 99.4
Liver lipid levels PL, relative to Control (100) [1]: 100.5
Liver lipid levels TG, relative to Control (100) [1]: 51.1
Relative liver weight, relative to Control (100) [1]: 100
Serum lipid levels Ch, relative to Control (100) [1]: 84.7
Serum lipid levels PL, relative to Control (100) [1]: 79.3
Serum lipid levels TG, relative to Control (100) [1]: 77.2
response vs control in vivo at 100 mg/kg [2, 4]: 96.1%
response vs control in vivo at 100 mg/kg [2, 5]: 97.8%
response vs control in vivo at 100 mg/kg [2, 6]: 73%
response vs control in vivo at 100 mg/kg [2, 7]: 83.7%
response vs control in vivo at 100 mg/kg [2, 8]: 79.4%
response vs control in vivo at 100 mg/kg [2, 9]: 63.3%
Liver lipid levels Ch [2, 10]: 2.27 ± 0.09 mg/g liver
Liver lipid levels PL [2, 10]: 34.8 ± 0.5 mg/g liver
Liver lipid levels TG [2, 10]: 5.24 ± 0.40 mg/g liver
Relative liver weight [2, 10]: 3.70 ± 0.05 g/100 g b.w.
Serum lipid levels Ch [2, 10]: 81.7 ± 2.7 mg/dL
Serum lipid levels PL [2, 10]: 124 ± 5.5 mg/dL
Serum lipid levels TG [2, 10]: 79.5 ± 10.4 mg/dL
Relative liver weight, relative to Control (100) ([2]; Table 3): 98
LD50 (in vivo): > 4000 mg/kg

O=C(OCc1ccc(OCCCCCCc2ccc(Cl)cc2)cc1)c1cccnc1 [n1=6, n2=1, 4-[6-(4-Chlorophenyl)hexyloxy]benzyl nicotinate]
Liver lipid levels Ch [1]: 3.14 ± 0.17 mg/g liver
Liver lipid levels PL [1]: 38.9 ± 0.8 mg/g liver
Liver lipid levels TG [1]: 3.03 ± 0.41 mg/g liver
Relative liver weight [1]: 3.91 ± 0.08 g/100 g b.w.
Serum lipid levels Ch [1]: 54.2 ± 4.9 mg/dL
Serum lipid levels PL [1]: 72.2 ± 5.6 mg/dL
Serum lipid levels TG [1]: 24 ± 2.1 mg/dL
Liver lipid levels Ch, relative to Control (100) [1]: 96.7
Liver lipid levels PL, relative to Control (100) [1]: 102.4
Liver lipid levels TG, relative to Control (100) [1]: 40.7
Relative liver weight, relative to Control (100) [1]: 111
Serum lipid levels Ch, relative to Control (100) [1]: 69.1
Serum lipid levels PL, relative to Control (100) [1]: 66.7
Serum lipid levels TG, relative to Control (100) [1]: 63.5
response vs control in vivo at 100 mg/kg [2, 11]: 109%
response vs control in vivo at 100 mg/kg [2, 12]: 94.4%
response vs control in vivo at 100 mg/kg [2, 13]: 73.9%
response vs control in vivo at 100 mg/kg [2, 14]: 74.6%
response vs control in vivo at 100 mg/kg [2, 15]: 65.9%
response vs control in vivo at 100 mg/kg [2, 16]: 25.6%
Liver lipid levels Ch [2, 17]: 2.87 ± 0.08 mg/g liver
Liver lipid levels PL [2, 17]: 41.6 ± 0.5 mg/g liver
Liver lipid levels TG [2, 17]: 4.67 ± 0.32 mg/g liver
Relative liver weight [2, 17]: 4.17 ± 0.07 g/100 g b.w.
Serum lipid levels Ch [2, 17]: 64.7 ± 3 mg/dL
Serum lipid levels PL [2, 17]: 97.8 ± 3.8 mg/dL
Serum lipid levels TG [2, 17]: 31.7 ± 2.8 mg/dL
Relative liver weight, relative to Control (100) ([2]; Table 2): 108
LD50 (in vivo): > 4000 mg/kg

O=C(OCc1ccc(OCCCCc2ccc(Cl)cc2)cc1)c1cccnc1 [n1=4, n2=1, 4-[4-(4-chlorophenyl)butoxy]benzyl nicotinate]
lipid lowering effects compared with KCD-232 (in words) ([2]; 100 mg/kg p.o. 10 days): the lipid lowering effects were superior to that of KCD-232
response vs control in vivo at 100 mg/kg [2, 11]: 107%
response vs control in vivo at 100 mg/kg [2, 12]: 94.4%
response vs control in vivo at 100 mg/kg [2, 13]: 80.5%
response vs control in vivo at 100 mg/kg [2, 14]: 67.2%
response vs control in vivo at 100 mg/kg [2, 15]: 60.9%
response vs control in vivo at 100 mg/kg [2, 16]: 24.2%
Liver lipid levels Ch [2, 17]: 2.87 ± 0.13 mg/g liver
Liver lipid levels PL [2, 17]: 40.8 ± 0.7 mg/g liver
Liver lipid levels TG [2, 17]: 5.06 ± 0.69 mg/g liver
Relative liver weight [2, 17]: 4.04 ± 0.10 g/100 g b.w.
Serum lipid levels Ch [2, 17]: 58.3 ± 3.3 mg/dL
Serum lipid levels PL [2, 17]: 90.5 ± 4.6 mg/dL
Serum lipid levels TG [2, 17]: 29.9 ± 2.3 mg/dL
Relative liver weight, relative to Control (100) ([2]; Table 2): 105
LD50 (in vivo): > 4000 mg/kg
serum Ch, TG and PL (in words) ([3]; 100 mg/kg p.o. 7 days, compared with control): significantly reduced serum Ch, TG and PL
reduction of liver TG level compared with control ([3]; 100 mg/kg p.o. 7 days, p<0.05): 32%
Liver lipid levels Ch [3, 18]: 3.43 ± 0.10 mg/g liver
Liver lipid levels PL [3, 18]: 30.2 ± 1.4 mg/g liver
Liver lipid levels TG [3, 18]: 5.06 ± 1.21 mg/g liver
Serum lipid levels Ch [3, 18]: 45.3 ± 3.8 mg/dL
Serum lipid levels PL [3, 18]: 60.4 ± 4.8 mg/dL
Serum lipid levels TG [3, 18]: 16 ± 3.2 mg/dL
Relative liver weight ([3]; Table 1, 100 mg/kg p.o. 7 days, mean ± S.E. (n = 6)): 3.16 ± 0.05 g/100 g b.w.
Liver lipid levels Ch, relative to Control (100) [3, 19]: 97
Liver lipid levels PL, relative to Control (100) [3, 19]: 82
Liver lipid levels TG, relative to Control (100) [3, 19]: 69
Relative liver weight, relative to Control (100) [3, 19]: 102
Serum lipid levels Ch, relative to Control (100) [3, 19]: 60
Serum lipid levels PL, relative to Control (100) [3, 19]: 59
Serum lipid levels TG, relative to Control (100) [3, 19]: 47
